The record followed here is PubChem BioAssay (NCI).

Some test systems named below: ACHN renal; EKVX NSCLC; HCT-116 colon; LOX IMVI melanoma; NCI-H23 lung; NCI-H460 lung; NCI-H522 lung; OVCAR-3 ovarian; RPMI-8226 leukemia; SF-539 CNS.
Holding throughout (test): NCI anticancer screen, dose series, 48 h

The structures appear in SMILES notation.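 Cultured in 96-well plates, cells were exposed to test compound for 48 hours across five concentrations. The concentration for 50% growth inhibition is given as GI50. TGI: concentration producing complete growth inhibition.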

On to `O=C1c2cccnc2C(=O)c2c1c(C(=O)OCCN1CCOCC1)c1ccccn21`, for which the GI50 with ACHN renal was below 0.01 µM; with EKVX NSCLC, 1.54 µM; with HCT-116 colon, 0.0417 µM; in the experiment with LOX IMVI melanoma it was below 0.01 µM; in the experiment on NCI-H23 lung, below 0.01 µM; in the experiment with NCI-H460 lung it was below 0.01 µM. Besides, the GI50 was below 0.0109 µM in the experiment on NCI-H522 lung, 0.0671 µM with OVCAR-3 ovarian, 0.0914 µM in the experiment with RPMI-8226 leukemia and below 0.01 µM in the experiment on SF-539 CNS. Besides, the TGI is 11.5 µM with ACHN renal; 10.1 µM in the experiment on EKVX NSCLC; 1.49 µM in the experiment on HCT-116 colon; 0.384 µM with LOX IMVI melanoma; 1.06 µM with NCI-H460 lung; 0.0449 µM in the experiment on NCI-H522 lung. Also, the results for the TGI in the experiment on OVCAR-3 ovarian, with RPMI-8226 leukemia and in the experiment on SF-539 CNS were 1.11 µM, 4.65 µM and below 0.0212 µM, respectively.

In the case of `CCN(CC)CC(O)C1CCC(c2ccccc2)CC1` (stereo not given), the TGI in the experiment on ACHN renal is 57.5 µM; in the experiment with EKVX NSCLC it was above 100 µM; in the experiment on HCT-116 colon it was above 100 µM; in the experiment with LOX IMVI melanoma it was 42.1 µM; with NCI-H23 lung it was above 100 µM; with NCI-H460 lung, 85.5 µM. The TGI in the experiment on NCI-H522 lung is 43.1 µM; in the experiment with OVCAR-3 ovarian, above 100 µM; with RPMI-8226 leukemia, 39 µM; with SF-539 CNS, 40.2 µM.

Consider `CCN1CCN(C(=O)[C@]23CCC(C)(C)C[C@@H]2C2=CC[C@@H]4[C@@]5(C)C/C(=C/c6cccnc6)C(=O)C(C)(C)[C@@H]5CC[C@@]4(C)[C@]2(C)CC3)CC1`, for which the GI50 with ACHN renal was 2.6 µM; in the experiment with EKVX NSCLC it was 1.9 µM; in the experiment with HCT-116 colon, 1.01 µM; with LOX IMVI melanoma it was 1.36 µM; with NCI-H23 lung it was 2.1 µM; in the experiment on NCI-H460 lung, 1.39 µM. Further, the GI50 with NCI-H522 lung is 1.61 µM; in the experiment on OVCAR-3 ovarian, 1.51 µM; with RPMI-8226 leukemia, 0.959 µM; in the experiment on SF-539 CNS, 1.62 µM. The TGI in the experiment on ACHN renal came out at 10.5 µM; in the experiment with EKVX NSCLC, 6.48 µM; in the experiment with HCT-116 colon, 2.22 µM; in the experiment with LOX IMVI melanoma it was 2.73 µM; in the experiment with NCI-H23 lung it was 5.85 µM; in the experiment on NCI-H460 lung it was 2.93 µM. The TGI in the experiment on NCI-H522 lung came out at 3.75 µM; in the experiment on OVCAR-3 ovarian it was 2.95 µM; with RPMI-8226 leukemia, 5.13 µM; in the experiment on SF-539 CNS, 3 µM.

Regarding `COC(=O)c1ccc(C2SCC(=O)N2NC(=O)C(O)c2ccccc2)cc1` (stereo not given), the GI50 in the experiment with ACHN renal, with EKVX NSCLC, in the experiment with HCT-116 colon, in the experiment with LOX IMVI melanoma, with NCI-H23 lung and in the experiment with NCI-H460 lung was above 100 µM in each case. The GI50 in the experiment with NCI-H522 lung, with OVCAR-3 ovarian, with RPMI-8226 leukemia and with SF-539 CNS was above 100 µM throughout. The TGI with ACHN renal, in the experiment on EKVX NSCLC, in the experiment with HCT-116 colon, in the experiment with LOX IMVI melanoma, in the experiment on NCI-H23 lung and in the experiment on NCI-H460 lung was above 100 µM throughout. Besides, the TGI in the experiment with NCI-H522 lung, in the experiment with OVCAR-3 ovarian, in the experiment with RPMI-8226 leukemia and in the experiment with SF-539 CNS was above 100 µM throughout.

For the compound `Oc1cc2ccccc2cc1-c1n[nH]c(=S)n1-c1ccc(Cl)cc1`, the GI50 with ACHN renal is 25.8 µM; with EKVX NSCLC, 28.7 µM; in the experiment on HCT-116 colon it was 19.3 µM; in the experiment with LOX IMVI melanoma, 11.2 µM; in the experiment with NCI-H23 lung it was 20 µM; in the experiment with NCI-H522 lung it was 5.65 µM. The GI50 with OVCAR-3 ovarian is 20.3 µM; in the experiment on RPMI-8226 leukemia, 12.1 µM; with SF-539 CNS, 15.3 µM. The TGI with ACHN renal was above 100 µM; in the experiment on EKVX NSCLC, above 100 µM; in the experiment with HCT-116 colon, above 100 µM; in the experiment with LOX IMVI melanoma it was 50.2 µM; with NCI-H23 lung, 60.3 µM; in the experiment with NCI-H522 lung, 35.2 µM. Further, the TGI with OVCAR-3 ovarian is above 100 µM; with RPMI-8226 leukemia, 43.5 µM; in the experiment on SF-539 CNS, 50.8 µM.

Take `CC(=O)Nc1sc2c(c1-c1nc3ccccc3s1)CNC2`: the GI50 in the experiment with ACHN renal is 1.28 µM; in the experiment on EKVX NSCLC, 2.59 µM; in the experiment on HCT-116 colon it was 1.99 µM; in the experiment on LOX IMVI melanoma, 1.67 µM; in the experiment with NCI-H23 lung it was 2.44 µM; in the experiment on NCI-H460 lung it was 1.94 µM. In addition, the GI50 is 2.62 µM with NCI-H522 lung, 3.85 µM in the experiment with OVCAR-3 ovarian, 3.57 µM with RPMI-8226 leukemia and 2.17 µM in the experiment on SF-539 CNS. Besides, the TGI was 7.56 µM in the experiment with ACHN renal; 21.9 µM with EKVX NSCLC; 12.5 µM with HCT-116 colon; 6.74 µM with LOX IMVI melanoma; 11.8 µM in the experiment with NCI-H23 lung; 10.2 µM in the experiment on NCI-H460 lung. The TGI in the experiment on NCI-H522 lung was determined as 10.8 µM; with OVCAR-3 ovarian it was 24.4 µM; in the experiment with RPMI-8226 leukemia, 19.3 µM; in the experiment with SF-539 CNS, 8.52 µM.

In the case of `O=C(O)/C=C\C(=O)Nc1ccc2c(c1)C(=O)c1cc(F)ccc1-2`, the TGI with ACHN renal, with EKVX NSCLC, with HCT-116 colon, in the experiment with LOX IMVI melanoma, in the experiment with NCI-H23 lung and in the experiment with NCI-H460 lung was above 100 µM in each case. Besides, the TGI in the experiment with NCI-H522 lung, in the experiment with OVCAR-3 ovarian, in the experiment with RPMI-8226 leukemia and in the experiment on SF-539 CNS was above 100 µM throughout.

On to `CCSc1nc2n(c(=S)n1)CCN2C`, for which the TGI in the experiment with ACHN renal worked out at 60.6 µM; in the experiment on EKVX NSCLC it was 69.6 µM; in the experiment on HCT-116 colon, 33.7 µM; in the experiment on LOX IMVI melanoma it was 34.8 µM; in the experiment on NCI-H460 lung, 39.7 µM; with NCI-H522 lung, 19.3 µM. The TGI with OVCAR-3 ovarian amounted to 49.3 µM; with RPMI-8226 leukemia, 61.7 µM; in the experiment with SF-539 CNS, 58.9 µM.

In the case of `CN(C)/C=N/c1nc2ncn(CCOC(=O)c3ccccc3)c2c(=O)[nH]1`, the TGI with ACHN renal, in the experiment on EKVX NSCLC, in the experiment on HCT-116 colon, in the experiment with LOX IMVI melanoma, with NCI-H460 lung and in the experiment with NCI-H522 lung was above 100 µM in each case. Further, the TGI in the experiment on OVCAR-3 ovarian, in the experiment on RPMI-8226 leukemia and in the experiment on SF-539 CNS was above 100 µM each time.
